{"source": "patent US11779594B2", "about": "“Compositions for the treatment of epithelial lesions” (INTERNATIONAL HEALTH SCIENCE S.R.L., priority 2019, dated 2023)", "system": "COLO-680N esophagus cells", "assay": "scratch wound healing of COLO-680N esophagus cell monolayer irritated with BSC medium", "type": "cell-based, human", "conditions": "COLO-680N cells treated with BSC; vs placebo, P<0.05 (FIG. 5)", "protocol": "The adhesive, barrier, soothing and repairing effects of a composition of the invention was studied in different experimental models of esophageal epithelial cells (i.e. CP-A and COLO-680N) by simulating in vitro the damage induced by gastric content on the esophagus.\nTo this aim, we incubated the cell monolayer with a medium (named BSC) containing bile salts cocktail, pepsin and pH 2.5 (thus simulating the gastric juice).\nThe significant repairing effect was assessed as described in FIG. 1-5. Confluent monolayers of COLO-680N esophagus cells, cultured in a 24 well plate, were scraped with a pipette tip and, after washing twice with PBS, were incubated with BSC (irritant medium simulating the gastro-intestinal juice) or culture medium alone as a negative control. […] Wound closure (healing) was evaluated up to 24 h under a Leica DMIL inverted microscope (Leica Microsystem) and images were collected using a Canon Powershot A640 digital camera (Canon). The cellular movements, distance and cell number were used for quantitative evaluations. The images were analyzed by ImaJ software. Results were analyzed by statistical method for assessing the significance compared to both controls and single component of the invention; the differences were considered significant for p<0.05 (FIG. 5).", "data": [{"substance": "sodium hyaluronate [HA]", "values": [{"measurement": "quantified wound healing effect (number of cells, movements, distance covered)", "value": "do not exert wound healing effect"}]}]}
